Experiments:
Format in all cases: biochemical
Settings in all cases: HotSpot radiometric assay, 33P-ATP
JNK3 = target: T1, JNK3 (Homo sapiens, UniProt P53779); test: HotSpot Kinase Assay (Reaction Biology Corp.), anti-JNK3 activity
T1 construct: purchased Reaction Biology Corp
Method: (§1) The anti-JNK3 activity of compounds prepared as in the previous examples was evaluated using a Reaction Biology Corp. HotSpot Kinase Assay. Base reaction buffer was 20 mM HEPES (4-(2-hydroxyethyl)-1-piperazineethanesulfonic acid) at pH 7.5 with 10 mM MgCl2, 1 mM EGTA (ethylene glycol-bis(β-aminoethyl ether)-N,N,N′,N′-tetracetic acid), 0.02% Brij™ 35, 0.02 mg/mL BSA (bovine serum albumin), 0.1 mM Na3VO4, 2 mM DTT (dithiothreitol), and 1% DMSO. Required cofactors were added individually to each kinase reaction.
(§2) Activity against related enzymes JNK1 and P38a was further assessed using the same assay.

JNK1 = target: T2, JNK1 (Homo sapiens, UniProt P45983); test: HotSpot Kinase Assay, JNK1
T2 construct: purchased Reaction Biology Corp
Method: as §1, §2

p38a = target: T3, p38a (Homo sapiens, UniProt Q16539); test: HotSpot Kinase Assay, P38a
T3 construct: purchased Reaction Biology Corp
Method: as §1, §2

T3 sequence (Q16539 whole entry): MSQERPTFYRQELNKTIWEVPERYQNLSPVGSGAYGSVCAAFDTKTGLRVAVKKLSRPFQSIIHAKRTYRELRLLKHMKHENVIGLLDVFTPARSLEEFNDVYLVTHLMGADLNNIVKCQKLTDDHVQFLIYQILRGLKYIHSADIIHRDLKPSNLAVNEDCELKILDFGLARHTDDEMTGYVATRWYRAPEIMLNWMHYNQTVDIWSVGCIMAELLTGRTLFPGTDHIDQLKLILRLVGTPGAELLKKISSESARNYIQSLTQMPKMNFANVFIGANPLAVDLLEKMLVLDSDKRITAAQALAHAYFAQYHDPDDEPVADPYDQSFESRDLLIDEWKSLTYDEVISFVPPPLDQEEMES
T1 sequence (P53779 whole entry): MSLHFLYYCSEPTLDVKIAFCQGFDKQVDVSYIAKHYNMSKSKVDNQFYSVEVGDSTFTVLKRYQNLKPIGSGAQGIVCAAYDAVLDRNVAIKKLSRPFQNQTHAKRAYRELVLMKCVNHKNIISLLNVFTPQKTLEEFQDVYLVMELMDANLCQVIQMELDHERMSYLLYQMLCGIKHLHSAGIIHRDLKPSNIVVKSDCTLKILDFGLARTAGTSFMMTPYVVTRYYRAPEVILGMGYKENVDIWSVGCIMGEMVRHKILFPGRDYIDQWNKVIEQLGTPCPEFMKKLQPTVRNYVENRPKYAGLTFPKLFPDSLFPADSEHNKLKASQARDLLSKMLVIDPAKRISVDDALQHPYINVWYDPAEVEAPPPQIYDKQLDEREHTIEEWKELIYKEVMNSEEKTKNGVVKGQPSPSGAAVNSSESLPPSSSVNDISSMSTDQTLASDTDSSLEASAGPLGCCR
T2 sequence (P45983 whole entry): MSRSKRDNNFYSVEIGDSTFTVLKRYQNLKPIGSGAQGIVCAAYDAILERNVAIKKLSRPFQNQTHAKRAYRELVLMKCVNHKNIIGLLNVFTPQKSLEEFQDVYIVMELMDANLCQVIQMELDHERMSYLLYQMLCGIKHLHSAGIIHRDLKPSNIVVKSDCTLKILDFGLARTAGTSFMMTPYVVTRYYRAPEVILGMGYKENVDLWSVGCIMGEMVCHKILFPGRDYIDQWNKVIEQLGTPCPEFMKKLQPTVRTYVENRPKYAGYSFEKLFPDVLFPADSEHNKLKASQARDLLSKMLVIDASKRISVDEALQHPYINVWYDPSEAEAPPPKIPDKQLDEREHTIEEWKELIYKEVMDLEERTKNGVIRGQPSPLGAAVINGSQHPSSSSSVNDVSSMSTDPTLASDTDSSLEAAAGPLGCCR

IC50 (JNK3)	IC50 (JNK1)	IC50 (p38a)	SMILES
< 200 nM	200 to 1000 nM	200 to 1000 nM	O=C(NCCCF)c1cc(-n2ncc3cc(Oc4ccccc4Cl)cnc32)cs1 [Compound 72, 4-(5-(2-chlorophenoxy)-1H-pyrazolo[3,4-b]pyridin-1-yl)-N-(3-fluoropropyl)thiophene-2-carboxamide]
< 200 nM	> 1000 nM	> 1000 nM	CC(C)NC(=O)c1cc(-n2ncc3cc(Oc4ccccc4Cl)ncc32)cs1 [Compound 7, 4-(5-(2-chlorophenoxy)-1H-pyrazolo[3,4-c]pyridine-1-yl)-N-isopropylthiophene-2-carboxamide]
< 200 nM	< 200 nM	< 200 nM	O=C(NC1CCOCC1)c1cc(-n2ncc3cc(Nc4ccccc4Cl)c(F)cc32)cs1 [Compound 38, 4-(5-((2-chlorophenyl)amino)-6-fluoro-1H-indazol-1-yl)-N-(tetrahydro-2H-pyran-4-yl)thiophene-2-carboxamide]
< 200 nM	> 1000 nM	200 to 1000 nM	[2H]C([2H])([2H])N1CC[C@@H](NC(=O)c2cc(-n3ncc4cc(Oc5ccccc5Cl)ccc43)cs2)C1 [Compound 13, (R)-4-(5-(2-chlorophenoxy)-1H-indazol-1-yl)-N-(1-(methyl-d3)pyrrolidin-3-yl)thiophene-2-carboxamide]
< 200 nM	> 1000 nM	> 1000 nM	COc1cc2c(cnn2-c2csc(C(=O)NC3COC3)c2)cc1Nc1ccccc1Cl [Compound 78, 4-(5-((2-chlorophenyl)amino)-6-methoxy-1H-indazol-1-yl)-N-(oxetan-3-yl)thiophene-2-carboxamide]

The next lines start with the compound.

SMILES	IC50 (JNK3)	IC50 (JNK1)	IC50 (p38a)
O=C(NC(CO)CO)c1cc(-n2ncc3nc(Nc4ccccc4Cl)ccc32)cs1 [Compound 53, 4-(5-((2-chlorophenyl)amino)-1H-pyrazolo[4,3-b]pyridin-1-yl)-N-(1,3-dihydroxypropan-2-yl)thiophene-2-carboxamide]	< 200 nM	> 1000 nM	> 1000 nM
CNC(=O)c1cc(-n2ncc3cc(Nc4cccc(OC)c4Cl)c(C)nc32)cs1 [Compound 81, 4-(5-((2-chloro-3-methoxyphenyl)amino)-6-methyl-1H-pyrazolo[3,4-b]pyridin-1-yl)-N-methylthiophene-2-carboxamide]	< 200 nM	200 to 1000 nM	200 to 1000 nM
CNC(=O)c1cc(-n2ncc3cc(Nc4ccccc4Cl)cnc32)c(C)s1 [Compound 65, 4-(5-((2-chlorophenyl)amino)-1H-pyrazolo[3,4-b]pyridin-1-yl)-N,5-dimethylthiophene-2-carboxamide]	< 200 nM	200 to 1000 nM	< 200 nM
CC(C)NC(=O)c1cc(-n2ncc3nc(Nc4ccccc4Cl)ccc32)cs1 [Compound 54, 4-(5-((2-chlorophenyl)amino)-1H-pyrazolo[4,3-b]pyridin-1-yl)-N-isopropylthiophene-2-carboxamide]	< 200 nM	200 to 1000 nM	200 to 1000 nM
COCCNC(=O)c1cc(-n2ncc3nc(Nc4ccccc4Cl)ccc32)cs1 [Compound 55, 4-(5-((2-chlorophenyl)amino)-1H-pyrazolo[4,3-b]pyridin-1-yl)-N-(2-methoxyethyl)thiophene-2-carboxamide]	< 200 nM	> 1000 nM	200 to 1000 nM
COCCNC(=O)c1cc(-n2ncc3cc(Nc4ccccc4Cl)ncc32)cs1 [Compound 17, 4-(5-((2-chlorophenyl)amino)-1H-pyrazolo[3,4-c]pyridin-1-yl)-N-(2-methoxyethyl)thiophene-2-carboxamide]	< 200 nM	200 to 1000 nM	< 200 nM
COCCNC(=O)c1cc(-n2ncc3cc(Nc4ccccc4Cl)c(F)cc32)cs1 [Compound 37, 4-(5-((2-chlorophenyl)amino)-6-fluoro-1H-indazol-1-yl)-N-(2-methoxyethyl)thiophene-2-carboxamide]	< 200 nM	< 200 nM	< 200 nM

Reference: patent US12448375B2, “Kinase inhibitors for the treatment of neurodegenerative diseases” (Ohio State Innovation Foundation, priority 2019, dated 2025)
